Source: EP0024372A1, “Derivatives of clavulanic acid, their preparation and pharmaceutical compositions containing them” (BEECHAM GROUP PLC, priority 1979, dated 1981)

How the values were obtained:
Assay in all cases: standard MIC microtitre synergy test with ampicillin
Type in all cases: cell-based
E.coli JT39 = tested on: E.coli JT39
Source text: (§1) In a standard MIC microtitre synergy test with ampicillin the following results were obtained with the compound of Example 7.

Proteus mirabilis C889 = tested on: Proteus mirabilis C889
Source text: as §1

[1] = tested on: Staphylococcus aureus Russell; conditions: one cell spanning Inhibitor Concentration 20, 5 and 1 μg/ml
Source text: as §1

Klebsiella aerogenes E70 = tested on: Klebsiella aerogenes E70
Source text: as §1

[2] = Inhibitor Concentration 1 μg/ml
[3] = Inhibitor Concentration 5 μg/ml
[4] = Inhibitor Concentration 20 μg/ml

## O=C(O)[C@H]1/C(=C/Cc2ccccc2O)O[C@@H]2CC(=O)N21 [Example 7, Lithium 9-(2-hydroxyphenyl)deoxyclavulanate]
E.coli JT39; [2]
  MIC microtitre synergy test with ampicillin: 125
E.coli JT39; [3]
  MIC microtitre synergy test with ampicillin: 16
E.coli JT39; [4]
  MIC microtitre synergy test with ampicillin: 2
Proteus mirabilis C889; [2]
  MIC microtitre synergy test with ampicillin: 16
Proteus mirabilis C889; [3]
  MIC microtitre synergy test with ampicillin: 16
Proteus mirabilis C889; [4]
  MIC microtitre synergy test with ampicillin: 8
[1]
  MIC microtitre synergy test with ampicillin: - Inhibition -
Klebsiella aerogenes E70; [2]
  MIC microtitre synergy test with ampicillin: 12.5
Klebsiella aerogenes E70; [3]
  MIC microtitre synergy test with ampicillin: 6.25
Klebsiella aerogenes E70; [4]
  MIC microtitre synergy test with ampicillin: 3.1
